From PubChem BioAssay AID1963864 (Molecular Pharmacology Branch, DTP, NCI, 2024)

Tested on: KRAS PDC multicell spheroid viability
Assay: Anticancer human tumor 521955-158-R6-J3-PDC patient-derived pancreatic carcinoma cell line growth inhibition [KRAS2]
Details: for viability, T/C: stronger effect = lower value
Summary of the method: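 KRAS-mutant tumor cells were grown as spheroids with HUVEC endothelial cells and human MSCs as stroma. Targeted agents were tested alone and with KRAS pathway inhibitors. Doses started at or near clinical Cmax, or 10 microM, descending half-log.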

[1] = curve of first compound, second compound 0.1 µM
[2] = curve of first compound, second compound 0.316 µM
[3] = curve of first compound, second compound 1 µM
[4] = curve of first compound, second compound 3.16 µM
[5] = curve of first compound, second compound 10 µM
[6] = second compound 0.1 µM, first compound 0.0316 µM
[7] = second compound 0.1 µM, first compound 0.1 µM
[8] = second compound 0.1 µM, first compound 0.316 µM
[9] = second compound 0.1 µM, first compound 1 µM
[10] = second compound 0.1 µM, first compound 3.16 µM
[11] = second compound 0.1 µM, first compound 10 µM
[12] = second compound 0.316 µM, first compound 0.0316 µM
[13] = second compound 0.316 µM, first compound 0.1 µM
[14] = second compound 0.316 µM, first compound 0.316 µM
[15] = second compound 0.316 µM, first compound 1 µM
[16] = second compound 0.316 µM, first compound 3.16 µM
[17] = second compound 0.316 µM, first compound 10 µM
[18] = second compound 1 µM, first compound 0.0316 µM
[19] = second compound 1 µM, first compound 0.1 µM
[20] = second compound 1 µM, first compound 0.316 µM
[21] = second compound 1 µM, first compound 1 µM
[22] = second compound 1 µM, first compound 3.16 µM
[23] = second compound 1 µM, first compound 10 µM
[24] = second compound 3.16 µM, first compound 0.0316 µM
[25] = second compound 3.16 µM, first compound 0.1 µM
[26] = second compound 3.16 µM, first compound 0.316 µM
[27] = second compound 3.16 µM, first compound 1 µM
[28] = second compound 3.16 µM, first compound 3.16 µM
[29] = second compound 3.16 µM, first compound 10 µM
[30] = second compound 10 µM, first compound 0.0316 µM
[31] = second compound 10 µM, first compound 0.1 µM
[32] = second compound 10 µM, first compound 0.316 µM
[33] = second compound 10 µM, first compound 1 µM
[34] = second compound 10 µM, first compound 3.16 µM
[35] = second compound 10 µM, first compound 10 µM
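Further: drug exposure lasted seven days.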
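Wherever viability, T/C is given: 100% = DMSO vehicle wells and lower means fewer viable cells.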

SMILES	IC50 [1] [µM]	IC50 [2] [µM]	IC50 [3] [µM]	IC50 [4] [µM]	IC50 [5] [µM]	viability, T/C [6] [%]	viability, T/C [7] [%]	viability, T/C [8] [%]	viability, T/C [9] [%]	viability, T/C [10] [%]	viability, T/C [12] [%]	viability, T/C [13] [%]	viability, T/C [14] [%]	viability, T/C [15] [%]	viability, T/C [16] [%]	viability, T/C [18] [%]	viability, T/C [19] [%]	viability, T/C [20] [%]	viability, T/C [21] [%]	viability, T/C [22] [%]	also measured
CCNC(=O)CC1N=C(c2ccc(Cl)cc2)c2cc(OC)ccc2-n2c(C)nnc21 (stereo unspecified) + C=CC(=O)N1CCN(c2nc(=O)n(-c3c(C)ccnc3C(C)C)c3nc(-c4c(O)cccc4F)c(F)cc23)C(C)C1	> 10	> 10	> 10	0.93	0.266	88.2	93.7	79.9	78.5	81.6	103	105	79.3	72.2	83.3	112	108	83.2	81.1	66.5	viability, T/C [11]: 78.6%; viability, T/C [17]: 70.6%; viability, T/C [23]: 68.7%; viability, T/C [24]: 89.3%; viability, T/C [25]: 83%; viability, T/C [26]: 65.6%; viability, T/C [27]: 49.8%; viability, T/C [28]: 40.7%; viability, T/C [29]: 45.3%; viability, T/C [30]: 72.1%; viability, T/C [31]: 68.4%; viability, T/C [32]: 46.2%; viability, T/C [33]: 35.5%; viability, T/C [34]: 33.7%; viability, T/C [35]: 29.2%
COC(=O)c1ccc2c(C(=Nc3ccc(N(C)C(=O)CN4CCN(C)CC4)cc3)c3ccccc3)c(O)[nH]c2c1 + CNCc1ccccc1-c1csc(C(C)Nc2nc(C)nc3cc(OC)c(OC)cc23)c1	3.03	1.84	3.28	< 0.0316	< 0.0316	91	105	120	134	47.5	83.7	93.3	107	120	5.04	84.1	90.1	110	110	51.7	viability, T/C [11]: 0.53%; viability, T/C [17]: 0.18%; viability, T/C [23]: 1.19%; viability, T/C [24]: 2.05%; viability, T/C [25]: 1.85%; viability, T/C [26]: 2.08%; viability, T/C [27]: 1.25%; viability, T/C [28]: 0.14%; viability, T/C [29]: 1.34%; viability, T/C [30]: 0.42%; viability, T/C [31]: 1.27%; viability, T/C [32]: 0.48%; viability, T/C [33]: 0.14%; viability, T/C [34]: 2.49%; viability, T/C [35]: 0.86%
O=C(c1cc(Cc2n[nH]c(=O)c3ccccc23)ccc1F)N1CCN(C(=O)C2CC2)CC1 + COc1cc2nc(C)nc(NC(C)c3cc(N)cc(C(F)(F)F)c3)c2cc1OC1CCOC1	> 10	> 10	> 10	> 10	> 10	82.4	76.4	86.1	75.5	69.2	88.9	88.8	80.5	70.5	67.1	90.9	88.3	97.1	70.8	70.3	viability, T/C [11]: 80.2%; viability, T/C [17]: 77.7%; viability, T/C [23]: 83.5%; viability, T/C [24]: 70.1%; viability, T/C [25]: 75.6%; viability, T/C [26]: 67.2%; viability, T/C [27]: 60.8%; viability, T/C [28]: 63.6%; viability, T/C [29]: 75.9%; viability, T/C [30]: 55.4%; viability, T/C [31]: 59.5%; viability, T/C [32]: 55.9%; viability, T/C [33]: 53.3%; viability, T/C [34]: 65.3%; viability, T/C [35]: 77.4%
COc1cc2nccc(Oc3ccc(NC(=O)C4(C(=O)Nc5ccc(F)cc5)CC4)cc3)c2cc1OC + CC1OCC2(CCN(c3cnc(Sc4ccnc(N)c4Cl)c(N)n3)CC2)C1N	> 10	> 10	> 10	> 10	> 10	93.7	93.7	89.3	102	105	97.5	91	89.3	105	108	116	96.8	108	112	90.7	viability, T/C [11]: 102%; viability, T/C [17]: 86.5%; viability, T/C [23]: 90%; viability, T/C [24]: 115%; viability, T/C [25]: 122%; viability, T/C [26]: 118%; viability, T/C [27]: 119%; viability, T/C [28]: 103%; viability, T/C [29]: 81.6%; viability, T/C [30]: 112%; viability, T/C [31]: 121%; viability, T/C [32]: 111%; viability, T/C [33]: 119%; viability, T/C [34]: 80.6%; viability, T/C [35]: 67.7%
CCNC(=O)CC1N=C(c2ccc(Cl)cc2)c2cc(OC)ccc2-n2c(C)nnc21 (stereo unspecified)	–	–	–	–	–	–	–	–	–	–	–	–	–	–	–	–	–	–	–	–	viability, T/C (compound 0.0316 µM): 96.8% [middle of 5 runs]; viability, T/C (compound 0.1 µM): 90.3% [middle of 5 runs]; viability, T/C (compound 0.316 µM): 84.9% [middle of 5 runs]; viability, T/C (compound 3.16 µM): 79.8% [middle of 5 runs]; viability, T/C (compound 10 µM): 79.4% [middle of 5 runs]; IC50 (curve of compound): > 10 µM
CC1COCCN1c1cc(-c2ccnn2C)c2ccnc(-c3ccn[nH]3)c2n1 (stereo unspecified) + CC1OCC2(CCN(c3cnc(Sc4ccnc(N)c4Cl)c(N)n3)CC2)C1N	> 3.16	> 3.16	> 3.16	> 3.16	> 3.16	81.1	73.9	67.6	67.3	75.2	84.5	74.6	64.3	71.2	64.4	84.8	81.4	76.7	68.3	61	viability, T/C (second compound 0.1 µM, first compound 0.01 µM): 87.9%; viability, T/C (second compound 0.316 µM, first compound 0.01 µM): 89.9%; viability, T/C (second compound 1 µM, first compound 0.01 µM): 91.9%; viability, T/C (second compound 3.16 µM, first compound 0.01 µM): 102%; viability, T/C [24]: 109%; viability, T/C [25]: 99.9%; viability, T/C [26]: 75.8%; viability, T/C [27]: 67.8%; viability, T/C [28]: 66.6%; viability, T/C (second compound 10 µM, first compound 0.01 µM): 108%; viability, T/C [30]: 115%; viability, T/C [31]: 90.7%; viability, T/C [32]: 87.6%; viability, T/C [33]: 79.3%; viability, T/C [34]: 64.9%
